The source of these data is patent US11306098B2, “Substituted pyrrolo[1,2-a]pyrazines and pyrrolo[1,2-a][1,4]diazepines as TREX1 inhibitors” (VENENUM BIODESIGN, LLC, priority 2019, dated 2022).

For one assay, the target named is murine TREX1 (Mus musculus (Mouse), UniProt Q91XB0). As to the kind of experiment: TREX1 Exonuclease Assay (murine enzyme). It counts as biochemical. The note with it: murine TREX1 1 nM, FAM/BHQ1-labeled DNA oligonucleotide. In outline:
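Human TREX1 (aa 55-297, 0.5 nM) or murine TREX1 (aa 1-242, 1 nM) preincubated 30 min with compound (11-point, 3-fold), then 500 nM FAM/BHQ1-quenched DNA oligo added; 45 min at room temperature in pH 7.5 Tris buffer with 5 mM MgCl2, EDTA-stopped. Fluorescence (ex 485/em 535 nm) fit to four-parameter curve for IC50.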

Assay [1] has as its system THP1 Dual cells (ISRE Lucia reporter, cGAS-STING pathway). In words: THP1 monocyte assay, ISRE Lucia luciferase reporter. It counts as cell-based, human. To be noted: 48 hours, luciferase signal versus control wells without compound. From the text:
Example C is a cell-based assay for TREX1 inhibitors using THP1 Dual™ cells (Invivogen), a human monocyte cell line that has stable integration of an Interferon Stimulated Response Element (ISRE) Lucia reporter gene. The Lucia gene encodes a secreted luciferase reporter protein, under the control of an ISG54 minimal promoter in conjunction with five IFN-stimulated response elements. Activation of the cGAS-STING pathway in THP1 Dual™ cells leads to enhanced luciferase secretion and increased luminescence.
A cell-based assay was established using THP1 Dual™ cells (Invivogen), a human monocyte cell line that has stable integration of an Interferon Stimulated Response Element (ISRE) Lucia reporter gene. The Lucia gene encodes a secreted luciferase reporter protein, under the control of an ISG54 minimal promoter in conjunction with five IFN-stimulated response elements. Activation of the cGAS-STING pathway in these cells leads to enhanced luciferase secretion. The assay was conducted in standard 384-well white tissue culture plates. Cells (25,000 in 25 μL RPMI 1640 containing 10% Heat-Inactivated FBS, 1× Glutagro, 10 mM HEPES, 1 mM sodium pyruvate, 1× Pen/Strep, 100 μg/mL Normocin, 100 μg/mL Zeocin, 10 μg/mL Blasticidin) were added to the plate followed by 25 μL of compound in the same media+0.2% DMSO. The assay was incubated for 48 hours at 37° C. in 5% CO2. An aliquot of 5 μl was removed to combine with 12.5 μL of the luciferase detection reagent, QUANTI-Luc™ Gold (Invivogen) in a white 384-well plate. The luminescent signal was then read using an EnVision plate reader (Perkin Elmer). The fold activation was calculated by dividing the signal in wells containing test compound by the signal in the control wells without compound (see Table 7).
For orientation: Reporter assays use an easily measured gene product as a stand-in for the process of interest.

Assay [2] concerns interferon stimulated genes (ISGs) in THP1 Dual cells. In words: RT-qPCR assay of interferon stimulated gene expression. It counts as cell-based, human. The note with it: substance alone, 24 hours, normalized to GAPDH, unstimulated control = 1. From the text: Example D is a cell based assay that measures the increase in the expression of interferon stimulated genes (ISG) by RT-qPCR that are induced by TREX1 inhibitors when THP1 Dual™ cells are transfected with double-stranded DNA. The double stranded DNA used to transfect cells was VACV-70 (Invivogen), a 70 base pair oligonucleotide containing viral DNA motifs (Unterholzner L. et al., 2010. IFI16 is an innate immune sensor for intracellular DNA. Nat Immunol. 11(11):997-1004). Activation of cGAS-STING pathway in THP1 Dual™ cells increases the expression of ISGs.
The RT-qPCR assay was used to assess the ability of TREX1 inhibitors to enhance the expression of interferon stimulated genes (ISGs) in cells transfected with double-stranded DNA. The double stranded DNA used to transfect cells was VACV-70 (Invivogen), a 70 base pair oligonucleotide containing viral DNA motifs (Unterholzner L. et al., 2010. IFI16 is an innate immune sensor for intracellular DNA. Nat Immunol. 11(11):997-1004). Human THP1 Dual™ cells (Invivogen), were treated with test compound in the presence or absence of 1,200 ng/mL VACV-70, or with VACV-70 alone, for 24 hours. Cells were harvested by centrifugation and washed with phosphate buffer saline. Total RNA was isolated using Qiagen RNeasy mini kit. Genomic DNA was degraded using Thermo Scientific DNase 1 kit. Total RNA was quantified using a Nanodrop spectrophotometer. Using equal amounts of RNA, cDNA was synthesized using Invitrogen Superstrand III First Strand synthesis kit. Target and reference gene expression levels were determined by RT-qPCR using TaqMan gene expression assays and a Stratagene Mx3005P QPCR system (all reagents were from TaqMan, Applied Biosystems). Data were analyzed by the Comparative CT method. GAPDH was used for normalization. Target genes that were analyzed included interferon stimulated genes (INF-β, CXCL10, IFIT1, IFIT2, IFIT3, IFI44, and IFI44L).

Sequence of murine TREX1 (Q91XB0 1-242): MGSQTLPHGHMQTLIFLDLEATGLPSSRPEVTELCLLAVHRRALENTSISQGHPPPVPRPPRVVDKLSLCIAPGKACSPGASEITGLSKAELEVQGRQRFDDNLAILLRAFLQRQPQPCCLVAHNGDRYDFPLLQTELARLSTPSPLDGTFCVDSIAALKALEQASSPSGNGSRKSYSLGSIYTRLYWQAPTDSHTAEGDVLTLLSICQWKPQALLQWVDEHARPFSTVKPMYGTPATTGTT

In general, IC50 refers to the concentration that inhibits the measured activity by half. A low value points to inhibition by little substance. For `N[C@@H]1C[C@H]2C(=O)N([C@H](CCC(=O)O)C(=O)NCc3ccc(Cl)c(Cl)c3)CCC(CCc3ccccc3)N2C1` (stereo partly drawn) [Example 14B], the 50% inhibitory concentration (IC50) against murine TREX1 was < 1000 nM. Also, in assay [1], the “Fold activation @ 10 μM” value was found to be 12. Further, in assay [2], the CXCL10 expression is given as 2, the IFI44L expression is 65, the IFI44 expression is recorded as 54 and the IFIT1 expression amounted to 19. Also, in assay [2], the IFIT2 expression came out at 44, the IFIT3 expression was 25 and the IFN-β expression is recorded as 7.
